# Measurements as given in patent publication US11155539B2, “4-pyridinylmethyl-morpholine derivatives and the use thereof as medicament” (Boehringer Ingelheim International GmbH, priority 2018, dated 2021).
# Legend:
# NMDA NR1/NR2B receptor [1] = target: T1, NMDA NR1/NR2B receptor (Homo sapiens, UniProt Q05586+Q13224); test: In vitro NMDA NR1/NR2B cell assay (FLIPR, intracellular calcium induced by glycine/glutamate); assay type: cell-based; conditions: HEK293 cells expressing NMDA NR1/NR2B; 20 μM glycine, 1 μM glutamate; read-out: IC50 (in vitro NR2B affinity, FLIPR assay)
# T1 construct: host or cells: HEK293, tetracycline-inducible expression
# Protocol: (§1) A human HEK293 cell line with tetracyclin-inducible expression of NMDA NR1/NR2B receptor was used as a test system for compound efficacy and potency. The cell line was purchased from ChanTest, Catalog #CT6121. Compound activity was determined by measuring the effect of compounds on intracellular calcium concentration induced by glycine/glutamate agonism in a FLIPRtetra system (Molecular Devices).
# (§2) The cells were obtained as frozen cells in cryo-vials and stored until use at −150° C. Cells were grown in culture medium (DMEM/F12, 10% FBS, 5 μg/mL Blasticidin, 150 μg/mL Zeozin, 500 μg/mL Geneticin). […] For sub-culturing the cells were detached from flasks by Versene. For the assay, cells were detached, washed twice with induction medium (DMEM/F12 without glutamine, 10% FBS, 2 μg/mL Tetracycline, 2 mM Ketamine) and seeded to 384 well pure coat amine plates (Becton Dickinson, 50000 cells per well in 50 μl) 48 h prior to assay in induction medium.
# (§3) The test compounds were dissolved in 100% DMSO at a concentration of 10 mM and in a first step diluted in DMSO to a concentration of 5 mM, followed by serial dilution steps in 100% DMSO. Dilution factor and number of dilution steps may vary according to needs. Typically 8 different concentrations by 1:5 dilutions were prepared in duplicate, further intermediate dilutions (1:37.5) of the substances were carried out with aqueous assay buffer (137 mM NaCl, 4 mM KCl, 1.8 mM CaCl2, 10 mM HEPES, 10 mM Glucose, pH 7.4) resulting in a compound concentration 3 times above the final test concentration and DMSO at 2.7% resulting in 0.9% final DMSO concentration in the assay.
# (§4) At the assay day cells were washed 3× with assay buffer (as described above), 10 μL buffer remained in the wells after washing. 10 μL Ca kit loading buffer (AAT Bioquest; prepared from the kit containing the following components: Component A: Fluo-8 NW dissolved in 200 μL DMSO and 20 μl of this solution are mixed with 10 ml buffer prepared out of component B and C, Component B: 10× Pluronic® F127 Plus diluted 1:10 in component C, Component C: HHBS (Hanks with 20 mM Hepes) was added to the cells and the plates were incubated with lid for 60 minutes at room temperature. 20 μl assay buffer containing 60 μM glycine (20 μM final) and 3 μM glutamate (1 μM final) was added to column 1-23, column 24 got assay buffer without glycine/glutamate to serve as negative unstimulated control. Fluorescence (indicating the calcium influx as a result of the NR1/NR2B ion channel activation) was read on the FLIPRtetra device for 60 seconds to monitor the glutamate induced effects. After 2 minutes 20 μL of compound dilution prepared as described above or controls (row 1-22) in assay buffer were carefully added to the wells. […] The average of 2 measurements at 5 minutes and […] 10 seconds after compound addition is calculated and further used for IC50 calculations. Each assay microtiter compound dilution plate contained wells (in column 23 or 24) with DMSO controls instead of compound as controls for glycine/glutamate induced fluorescence (high controls) and wells with 1 μM of a reference NR2B NAM as low controls (Compound 22; reference: Layton, Mark E et al, ACS Chemical Neuroscience 2011, 2(7), 352-362).
# (§5) The output file of the reader contains the well number and measured average fluorescence units. For data evaluation and calculation, the measurement of the low control was set as 0% control and the measurement of the high control was set as 100% control. The IC50 values were calculated using the standard 4 parameter logistic regression formula. Calculation: [y=(a−d)/(1+(x/c)^b)+d], a=low value, d=high value; x=conc M; c=IC50 M; b=slope.
# MDR1 (P-gp) = target: T2, MDR1 (P-gp) (Homo sapiens, UniProt P08183); test: MDCK assay P-gp (permeability across MDCK-MDR1 monolayers); assay type: in vitro ADME; conditions: for Papp A→B at 2 h: apical-to-basal, MDCK-MDR1 monolayers, pH 7.4; for efflux ratio at 2 h: pH 7.4, Papp (b-a) divided by Papp (a-b), MDCK-MDR1, read-out: efflux ratio PEBA/PEAB
# T2 construct: expressed in transfected cells; host or cells: MDCKII (Madin-Darby canine kidney)
# Protocol: The MDCK assays provide information on the potential of a compound to pass the blood brain barrier. Permeability measurements across polarized, confluent MDCK-MDR1 cell monolayers grown on permeable filter supports are used as an in vitro absorption model: apparent permeability coefficients (PE) of the compounds across the MDCK-MDR1 cell monolayers are measured (pH 7.4, 37° C.) in apical-to-basal (AB) and basal-to-apical (BA) transport direction. The AB permeability (PEAB) represents drug absorption from the blood into the brain and the BA permeability (PEBA) drug efflux from the brain back into the blood via both, passive permeability as well as active transport mechanisms mediated by efflux and uptake transporters that are expressed on the MDCK-MDR1 cells, predominantly by the overexpressed human MDR1. Identical or similar permeabilities in both transport directions indicate passive permeation (PEBA/PEAB≤1), vectorial permeability points to additional active transport mechanisms. Higher PEBA than PEAB (PEBA/PEAB>5) indicates the involvement of active efflux mediated by MDR1, which might compromise the goal to achieve sufficient brain exposure. Therefore, this assay provides valuable support for selection of compounds applicable for further in vivo testing. High permeability not limited by efflux at the blood brain barrier is a favorable characteristic for compounds that are to be used for drugs acting primarily in the CNS.
# Apparent permeability coefficients (Papp) of the compounds across the MDCK-MDR1 monolayers (MDCKII cells transfected with human MDR1 cDNA expression plasmid) are measured in apical-to-basal (AB) and basal-to-apical (BA) direction. MDCK-MDR1 cells (6×10^5 cells/cm^2) are seeded on filter inserts (Corning, Transwell, polycarbonate, 0.4 μm pore size) and cultured for 9 to 10 days. Compounds dissolved in DMSO stock solution (1-20 mM) are diluted with HTP-4 aqueous buffer (128.13 mM NaCl, 5.36 mM KCl, 1 mM MgSO4, 1.8 mM CaCl2, 4.17 mM NaHCO3, 1.19 mM Na2HPO4, 0.41 mM NaH2PO4, 15 mM HEPES, 20 mM glucose, pH 7.4) supplemented with 0.25% BSA to prepare the transport solutions (final concentration: 1 or 10 μM, final DMSO<=0.5%). The transport solution is applied to the apical or basolateral donor side for measuring A-B or B-A permeability, respectively. The receiver side contains HTP-4 buffer supplemented with 0.25% BSA. Samples are collected at the start and end of experiment from the donor and at various time intervals for up to 2 hours also from the receiver side for concentration measurement by HPLC-MS/MS (RapidFire High-throughput MS System (Agilent) coupled to QTrap 6500 (AB Sciex) or TSQ Vantage (Thermo Scientific)). Sampled receiver volumes are replaced with fresh receiver solution. Efflux ratio is calculated dividing the Papp (b-a) values by the Papp (a-b) values.
# [2] = Metabolic stability in pooled human liver microsomes; assay type: in vitro ADME; conditions: pH 7.6, 1 μM compound, 37° C., NADPH, read-out: Half-life - t½ human liver microsomes
# From the text: Stability in human liver microsomes refers to the susceptibility of compounds to biotransformation in the context of selecting and/or designing drugs with favorable pharmacokinetic properties. The primary site of metabolism for many drugs is the liver. Human liver microsomes contain the cytochrome P450s (CYPs), and thus represent a model system for studying drug metabolism in vitro Enhanced stability in human liver microsomes is associated with several advantages, including increased bioavailability and adequate half-life, which can enable lower and less frequent dosing of patients. Thus, enhanced stability in human liver microsomes is a favorable characteristic for compounds that are to be used for drugs.
# The metabolic degradation of the test compound was assayed at 37° C. with pooled human liver microsomes. The final incubation volume of 60 μl per time point contains TRIS buffer pH 7.6 at room temperature (0.1 M), magnesium chloride (5 mM aqueous solution), microsomal protein (1 mg/mL for human) and the test compound at a final concentration of 1 μM. Following a short preincubation period at 37° C., the reactions were initiated by addition of betanicotinamide adenine dinucleotide phosphate, reduced form (NADPH, 1 mM), and terminated by transferring an aliquot into acetonitril after different time points. After centrifugation (10000 g, 5 min), an aliquot of the supernatant was assayed by HPLC-MS/MS as described above for the MDCK assay P-gp for the amount of parent compound. The half-life was determined by the slope of the semi-logarithmic plot of the concentration-time profile.
# Nav1.6 = Nav1.6 (Homo sapiens, UniProt Q9UQD0); test: Nav 1.6 inhibition, IonWorks Quattro electrophysiology; assay type: cell-based; conditions: normalized to vehicle control (0%) and maximal inhibition control (100%)
# Protocol: Determination of Nav 1.6.Inhibition
# IonWorks Quattro electrophysiological platform
# The compounds were prepared in DMSO at 300× the final assay concentrations of 1 and 5 μM.
# The 300×DMSO stock solutions were transferred into assay plates where 2 μl per well of each 300× stock solution were placed. All assay plates were stored at −80° C. until the day of assay.
# On the day of the assay, the appropriate assay plate was thawed at room temperature, centrifuged, and 198 μl of external recording solution was added and mixed thoroughly. This provided a 1:100 dilution. A further 1:3 dilution occurred upon addition to the cells in the IonWorks Quattro electrophysiological platform, giving a 1:300 dilution in total. On each assay plate, at least 8 wells were reserved for vehicle control (0.3% DMSO) and at least 8 wells for each positive control specific to the cell line tested. The positive controls were tested at a maximal blocking and an approximate IC50 concentration. As positive control Lidocaine at concentrations of 30 and 1000 μM was used.
# The solutions for recording Nav1.6 currents were as follows:
# Amphotericin B was used to obtain electrical access to the cell interior at a final concentration of 200 μg/ml in internal recording solution.
# State-dependent inhibition: Sodium channels when held at depolarized potential or long test pulse, the channels open and inactivate and then stay inactivated until the membrane potential is stepped back to hyperpolarized potentials, when the inactivated channels recover from inactivation into closed state.
# Cells were held at −120 mV. In order to completely inactivate the sodium channels (pulse 1), the cells were pulsed to +0 mV for 2500 ms and stepped back to −120 mV for 10 ms (to completely recover from inactivation, however channels that had drugs bound to them will not recover from inactivation) before stepping to +0 mV for 20 ms (pulse 2).
# Both the positive and vehicle control data associated with each cell line assayed are shown below as an example. The mean is shown for each positive and negative control as solid symbol with the total number of individual well replicates given next to the solid symbol. In addition, the individual data of each well are shown on the graph as open symbols so that the variation about the mean value can be readily assessed.
# Shown below are the assay controls for the Nav1.6 IonWorks Quattro assay.
# Tables 3 and 4 show the normalized percentage inhibition of Nav1.6 channel. […] (see also the figure Assay Control Results above).
# NMDA NR1/NR2B receptor [3] = target: T3, NMDA NR1/NR2B receptor (Homo sapiens, UniProt Q13224); test: In vitro NMDA NR1/NR2B cell assay (FLIPR, intracellular calcium induced by glycine/glutamate); assay type: cell-based; conditions: see Table 2
# T3 construct: host or cells: HEK293, tetracycline-inducible expression
# Protocol: as §1, §2, §3, §4, §5
# T2 sequence (P08183 whole entry): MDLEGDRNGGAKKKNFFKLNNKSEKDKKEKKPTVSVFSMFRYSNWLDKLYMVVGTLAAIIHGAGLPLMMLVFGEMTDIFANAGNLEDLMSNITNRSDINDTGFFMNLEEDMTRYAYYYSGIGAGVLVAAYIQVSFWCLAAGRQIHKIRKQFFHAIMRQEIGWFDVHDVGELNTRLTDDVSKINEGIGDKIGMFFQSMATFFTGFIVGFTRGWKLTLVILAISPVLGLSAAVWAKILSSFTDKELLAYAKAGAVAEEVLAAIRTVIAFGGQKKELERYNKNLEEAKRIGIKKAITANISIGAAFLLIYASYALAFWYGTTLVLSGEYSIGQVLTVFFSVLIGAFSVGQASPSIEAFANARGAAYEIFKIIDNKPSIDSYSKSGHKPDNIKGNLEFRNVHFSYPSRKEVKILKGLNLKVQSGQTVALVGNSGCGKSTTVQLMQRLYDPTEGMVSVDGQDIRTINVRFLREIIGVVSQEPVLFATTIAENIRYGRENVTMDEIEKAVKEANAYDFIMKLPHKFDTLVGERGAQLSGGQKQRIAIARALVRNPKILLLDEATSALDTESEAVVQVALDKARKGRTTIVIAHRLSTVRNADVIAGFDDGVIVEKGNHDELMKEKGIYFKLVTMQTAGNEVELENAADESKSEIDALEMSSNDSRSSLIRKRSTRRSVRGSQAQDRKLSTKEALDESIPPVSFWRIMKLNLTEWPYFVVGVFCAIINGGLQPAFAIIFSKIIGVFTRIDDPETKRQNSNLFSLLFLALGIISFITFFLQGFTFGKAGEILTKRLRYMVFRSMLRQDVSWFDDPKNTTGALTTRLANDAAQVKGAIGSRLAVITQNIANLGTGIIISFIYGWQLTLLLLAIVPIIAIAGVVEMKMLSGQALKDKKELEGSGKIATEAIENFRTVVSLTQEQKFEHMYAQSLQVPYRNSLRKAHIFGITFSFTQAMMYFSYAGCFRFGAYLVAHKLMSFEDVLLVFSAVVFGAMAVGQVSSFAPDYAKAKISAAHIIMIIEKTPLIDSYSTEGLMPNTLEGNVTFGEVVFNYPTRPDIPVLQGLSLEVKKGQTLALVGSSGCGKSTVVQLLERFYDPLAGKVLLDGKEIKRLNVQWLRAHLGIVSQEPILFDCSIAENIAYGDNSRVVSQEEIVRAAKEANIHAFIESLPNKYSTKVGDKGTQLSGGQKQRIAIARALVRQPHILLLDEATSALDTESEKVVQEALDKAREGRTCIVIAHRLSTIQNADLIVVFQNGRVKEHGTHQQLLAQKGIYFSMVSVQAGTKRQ
# T1 sequence (Q13224 27-1484, other chains not shown): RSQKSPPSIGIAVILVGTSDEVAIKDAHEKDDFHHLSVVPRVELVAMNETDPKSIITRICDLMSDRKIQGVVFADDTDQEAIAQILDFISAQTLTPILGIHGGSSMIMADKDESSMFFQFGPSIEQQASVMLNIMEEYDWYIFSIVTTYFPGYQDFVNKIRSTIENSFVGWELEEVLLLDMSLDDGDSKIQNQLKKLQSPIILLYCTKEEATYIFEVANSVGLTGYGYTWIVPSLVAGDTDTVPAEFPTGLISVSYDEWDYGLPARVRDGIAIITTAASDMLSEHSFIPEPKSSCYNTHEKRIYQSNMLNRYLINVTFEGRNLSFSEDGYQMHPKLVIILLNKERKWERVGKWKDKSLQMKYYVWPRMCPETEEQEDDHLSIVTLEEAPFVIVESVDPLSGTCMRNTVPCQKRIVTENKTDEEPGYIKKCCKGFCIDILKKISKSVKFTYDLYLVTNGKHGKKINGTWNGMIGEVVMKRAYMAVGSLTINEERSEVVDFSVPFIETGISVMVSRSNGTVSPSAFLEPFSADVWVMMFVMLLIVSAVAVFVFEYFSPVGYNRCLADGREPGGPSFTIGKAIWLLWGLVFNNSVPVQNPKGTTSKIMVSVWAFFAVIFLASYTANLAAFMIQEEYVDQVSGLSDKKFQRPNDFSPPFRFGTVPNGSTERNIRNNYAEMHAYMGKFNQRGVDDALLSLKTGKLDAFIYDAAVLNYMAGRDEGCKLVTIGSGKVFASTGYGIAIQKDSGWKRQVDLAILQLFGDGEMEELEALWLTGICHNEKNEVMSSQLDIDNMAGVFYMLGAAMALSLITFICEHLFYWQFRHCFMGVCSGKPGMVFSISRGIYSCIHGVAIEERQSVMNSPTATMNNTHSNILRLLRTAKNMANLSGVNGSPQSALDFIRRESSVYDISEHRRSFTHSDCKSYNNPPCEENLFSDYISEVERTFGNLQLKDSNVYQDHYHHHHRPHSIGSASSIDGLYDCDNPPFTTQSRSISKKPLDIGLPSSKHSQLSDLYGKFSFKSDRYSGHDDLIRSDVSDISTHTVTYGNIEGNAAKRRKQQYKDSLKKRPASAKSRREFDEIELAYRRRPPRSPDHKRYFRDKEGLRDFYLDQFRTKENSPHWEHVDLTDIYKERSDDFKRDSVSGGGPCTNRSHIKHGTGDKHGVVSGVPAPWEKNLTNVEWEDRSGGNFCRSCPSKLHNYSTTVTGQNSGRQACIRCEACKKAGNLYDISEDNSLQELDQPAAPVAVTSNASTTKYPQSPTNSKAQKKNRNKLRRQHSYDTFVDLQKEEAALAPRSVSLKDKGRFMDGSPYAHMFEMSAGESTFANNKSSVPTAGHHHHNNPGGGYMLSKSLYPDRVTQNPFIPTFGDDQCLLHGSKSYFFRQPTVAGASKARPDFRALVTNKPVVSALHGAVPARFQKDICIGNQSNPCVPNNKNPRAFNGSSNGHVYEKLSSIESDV
# Nav1.6, sequence (Q9UQD0 whole entry): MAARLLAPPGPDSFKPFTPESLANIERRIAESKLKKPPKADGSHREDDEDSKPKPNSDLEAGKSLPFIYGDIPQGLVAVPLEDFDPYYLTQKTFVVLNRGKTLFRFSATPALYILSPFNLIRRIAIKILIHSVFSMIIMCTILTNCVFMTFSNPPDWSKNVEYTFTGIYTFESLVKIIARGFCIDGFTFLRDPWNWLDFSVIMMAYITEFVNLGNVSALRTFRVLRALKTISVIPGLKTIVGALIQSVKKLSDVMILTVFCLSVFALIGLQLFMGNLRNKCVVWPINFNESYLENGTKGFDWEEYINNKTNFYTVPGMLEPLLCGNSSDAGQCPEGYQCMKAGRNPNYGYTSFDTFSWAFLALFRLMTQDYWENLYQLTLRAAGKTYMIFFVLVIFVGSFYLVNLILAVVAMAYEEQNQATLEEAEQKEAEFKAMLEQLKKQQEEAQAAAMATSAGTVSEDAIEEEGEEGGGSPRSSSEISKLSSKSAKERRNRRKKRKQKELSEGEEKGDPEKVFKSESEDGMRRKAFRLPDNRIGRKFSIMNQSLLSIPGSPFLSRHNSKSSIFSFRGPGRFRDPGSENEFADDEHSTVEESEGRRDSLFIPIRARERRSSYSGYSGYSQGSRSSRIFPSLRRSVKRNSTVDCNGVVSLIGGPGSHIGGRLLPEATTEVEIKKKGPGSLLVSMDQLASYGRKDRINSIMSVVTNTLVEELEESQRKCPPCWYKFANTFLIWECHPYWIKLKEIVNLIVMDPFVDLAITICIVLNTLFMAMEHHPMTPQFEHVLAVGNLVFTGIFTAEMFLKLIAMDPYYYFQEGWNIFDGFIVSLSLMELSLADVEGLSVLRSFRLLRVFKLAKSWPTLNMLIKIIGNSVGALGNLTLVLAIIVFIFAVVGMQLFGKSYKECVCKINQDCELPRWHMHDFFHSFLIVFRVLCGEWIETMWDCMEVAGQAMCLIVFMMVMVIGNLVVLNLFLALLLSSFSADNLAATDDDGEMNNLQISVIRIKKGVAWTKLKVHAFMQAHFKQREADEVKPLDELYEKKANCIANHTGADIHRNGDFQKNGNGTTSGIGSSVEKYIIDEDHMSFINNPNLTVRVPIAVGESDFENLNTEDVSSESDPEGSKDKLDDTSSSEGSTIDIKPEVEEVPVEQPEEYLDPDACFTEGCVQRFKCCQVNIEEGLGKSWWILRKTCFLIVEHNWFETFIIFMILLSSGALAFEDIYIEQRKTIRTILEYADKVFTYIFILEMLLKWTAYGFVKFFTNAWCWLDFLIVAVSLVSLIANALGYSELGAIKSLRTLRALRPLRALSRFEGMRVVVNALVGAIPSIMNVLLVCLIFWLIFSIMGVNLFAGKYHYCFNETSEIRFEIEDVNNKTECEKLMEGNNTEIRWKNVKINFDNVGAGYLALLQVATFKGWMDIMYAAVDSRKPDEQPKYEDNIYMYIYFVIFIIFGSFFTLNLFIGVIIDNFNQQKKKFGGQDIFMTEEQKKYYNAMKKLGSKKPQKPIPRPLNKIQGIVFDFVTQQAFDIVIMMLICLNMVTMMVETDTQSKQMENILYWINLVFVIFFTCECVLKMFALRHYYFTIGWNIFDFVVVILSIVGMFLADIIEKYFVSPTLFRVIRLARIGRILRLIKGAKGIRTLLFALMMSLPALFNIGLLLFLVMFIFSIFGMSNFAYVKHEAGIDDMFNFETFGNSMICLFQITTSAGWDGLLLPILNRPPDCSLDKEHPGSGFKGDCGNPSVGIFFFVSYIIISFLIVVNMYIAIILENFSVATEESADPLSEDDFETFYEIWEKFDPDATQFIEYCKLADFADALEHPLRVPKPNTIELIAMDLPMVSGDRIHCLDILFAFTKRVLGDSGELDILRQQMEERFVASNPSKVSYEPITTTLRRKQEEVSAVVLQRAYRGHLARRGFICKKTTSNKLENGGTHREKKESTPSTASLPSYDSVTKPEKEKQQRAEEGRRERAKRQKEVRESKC
Structure (SMILES),IC50 (NMDA NR1/NR2B receptor [1]) [nM],Papp A→B at 2 h (MDR1 (P-gp)) [×10⁻⁶ cm/s],efflux ratio at 2 h (MDR1 (P-gp)),half-life at 1 μM [2] [h],inhibition at 1 µM (Nav1.6) [%],inhibition at 5 µM (Nav1.6) [%],activity on the NR1-NR2B ion channel (in words) (NMDA NR1/NR2B receptor [3])
CNC(=O)[C@@H]1CN(Cc2ccc(Oc3ccccc3F)cn2)CCO1 [Example 33],366,71,0.5,> 2.17,,,
CNC(=O)C1CN(Cc2ccc(Oc3ccc(C)cc3F)nc2)CCO1 (centres unmarked) [Example 12],,80,0.7,> 2.17,5.1,10.2,
CNC(=O)[C@@H]1CN(Cc2ccc(Oc3ccc(C)cc3F)cn2)CCO1 [Example 34],133,58,0.8,> 2.17,,,
CNC(=O)C1CN(Cc2ccc(Oc3ccc(Cl)cc3F)nc2)CCO1 (centres unmarked) [Example 15],,42,0.7,> 2.17,-17.4,-1.4,
CNC(=O)[C@@H]1CN(Cc2ccc(Oc3ccc(F)cc3F)cn2)CCO1 [Example 31],275,63,0.7,> 2.17,,,
CNC(=O)C1CN(Cc2ccc(Oc3ccc(F)cc3)nc2)CCO1 (centres unmarked) [Example 14],,92,0.4,> 2.17,0.7,0.4,
"CCNC(=O)C1CN(Cc2cccc(Oc3ccccc3)c2)CCO1 (centres unmarked) [Example 100 of WO2015/130905, reference compound]",,,,,,,do not show any activity
CNC(=O)C1CN(Cc2ccc(Oc3ccc(Cl)cc3)nc2)CCO1 (centres unmarked) [Example 16],,51,0.7,> 2.17,-0.5,7.1,
CNC(=O)[C@@H]1CN(Cc2ccc(Oc3ccc(Cl)cc3F)cn2)CCO1 [Example 32],255,80,0.5,> 2.17,,,
"O=C(NCc1ccccn1)C1CN(Cc2cccc(Oc3ccccc3)c2)CCO1 (centres unmarked) [Example 105 of WO2015/130905, reference compound]",,,,,,,do not show any activity
